The target of assay [1] is Somatostatin (Rattus norvegicus, UniProt P60042).
The target of assay [2] is Sodium channel protein type 2 subunit alpha (Homo sapiens, UniProt Q99250).
Assay [3] deals with Glutamate receptor 3 (Homo sapiens, UniProt P42263).
Assay [4] deals with Neuromedin-K receptor (Homo sapiens, UniProt P29371).
Assay [5] addresses Glutamate receptor ionotropic, kainate 2 (Homo sapiens, UniProt Q13002).
Assay [6] addresses Chloride channel protein 1 (Homo sapiens, UniProt P35523).
In assay [7] the target is 5-hydroxytryptamine receptor 1A (Homo sapiens, UniProt P08908).
For assay [8], the target named is Kappa-type opioid receptor (Homo sapiens, UniProt P41145).
Chain of Kappa-type opioid receptor (P41145 whole entry): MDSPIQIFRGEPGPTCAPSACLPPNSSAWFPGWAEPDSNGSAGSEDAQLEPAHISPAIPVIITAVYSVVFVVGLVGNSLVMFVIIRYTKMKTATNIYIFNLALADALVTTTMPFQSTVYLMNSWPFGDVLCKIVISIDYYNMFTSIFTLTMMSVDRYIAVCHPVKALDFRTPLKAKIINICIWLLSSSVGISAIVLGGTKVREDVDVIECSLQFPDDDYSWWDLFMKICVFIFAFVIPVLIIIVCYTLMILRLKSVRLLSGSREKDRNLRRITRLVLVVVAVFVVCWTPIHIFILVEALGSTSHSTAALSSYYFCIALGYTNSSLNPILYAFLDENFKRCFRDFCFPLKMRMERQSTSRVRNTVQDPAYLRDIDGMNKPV
Assay [9] addresses Mu-type opioid receptor (Rattus norvegicus, UniProt P33535).
For assay [10], the target named is Beta-2 adrenergic receptor (Mus musculus, UniProt P18762).
Assay [11] deals with Gamma-aminobutyric acid receptor subunit alpha-1 (Homo sapiens, UniProt P14867).
Assay [12] addresses GLRA1 protein (Homo sapiens, UniProt Q14C71).
For assay [13], the target named is Solute carrier family 22 member 1 (Rattus norvegicus, UniProt Q63089).
Assay [14] addresses Apamin (Apis mellifera, UniProt P01500).
Assay [15] deals with 5-hydroxytryptamine receptor 2C (Homo sapiens, UniProt P28335).
Assay [16] deals with Sodium-dependent noradrenaline transporter (Homo sapiens, UniProt P23975).
Chain of Sodium-dependent noradrenaline transporter (P23975 whole entry): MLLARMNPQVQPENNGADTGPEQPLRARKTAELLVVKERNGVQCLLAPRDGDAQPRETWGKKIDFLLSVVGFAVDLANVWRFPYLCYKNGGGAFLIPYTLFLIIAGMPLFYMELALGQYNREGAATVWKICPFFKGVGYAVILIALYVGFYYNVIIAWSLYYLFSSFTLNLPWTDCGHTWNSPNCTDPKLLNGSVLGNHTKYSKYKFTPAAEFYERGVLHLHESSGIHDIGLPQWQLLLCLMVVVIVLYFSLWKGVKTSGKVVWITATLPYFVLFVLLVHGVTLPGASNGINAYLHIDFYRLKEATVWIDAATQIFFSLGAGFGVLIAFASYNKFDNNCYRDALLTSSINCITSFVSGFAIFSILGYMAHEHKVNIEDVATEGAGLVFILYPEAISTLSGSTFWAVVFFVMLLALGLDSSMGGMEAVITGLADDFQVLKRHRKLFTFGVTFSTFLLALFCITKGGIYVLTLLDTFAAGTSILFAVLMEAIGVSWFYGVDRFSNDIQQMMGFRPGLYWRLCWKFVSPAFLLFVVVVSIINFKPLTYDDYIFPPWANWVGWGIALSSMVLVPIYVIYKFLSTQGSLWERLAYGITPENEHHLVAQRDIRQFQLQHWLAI
Assay [17] has as its target Sodium-dependent dopamine transporter (Homo sapiens, UniProt Q01959).
The target of assay [18] is ATP-sensitive inward rectifier potassium channel 11 (Homo sapiens, UniProt Q14654).
Assay [19] concerns the target Substance-P receptor (Homo sapiens, UniProt P25103).
For assay [20], the target named is Delta-type opioid receptor (Homo sapiens, UniProt P41143).
Assay [21] addresses Neuronal acetylcholine receptor subunit alpha-4 (Homo sapiens, UniProt P43681).
Assay [22] has as its target Acetylcholine receptor subunit alpha (Rattus norvegicus, UniProt P25108).
Assay [23] concerns the target Beta-nerve growth factor (Homo sapiens, UniProt P01138).
Assay [24] has as its target Glutamate receptor ionotropic, NMDA 1 (Rattus norvegicus, UniProt P35439).
Assay [25] concerns the target Adenosine receptor A2a (Homo sapiens, UniProt P29274).
Assay [26] has as its target Adenosine receptor A1 (Homo sapiens, UniProt P30542).
Assay [27] deals with Adrenergic alpha2 receptor (Mesocricetus auratus, UniProt Q60533).
The target in assay [28] is Substance-K receptor (Bos taurus, UniProt P05363).
In assay [29] the target is Neuronal acetylcholine receptor subunit alpha-7 (Homo sapiens, UniProt P36544).
Chain of Neuronal acetylcholine receptor subunit alpha-7 (P36544 whole entry): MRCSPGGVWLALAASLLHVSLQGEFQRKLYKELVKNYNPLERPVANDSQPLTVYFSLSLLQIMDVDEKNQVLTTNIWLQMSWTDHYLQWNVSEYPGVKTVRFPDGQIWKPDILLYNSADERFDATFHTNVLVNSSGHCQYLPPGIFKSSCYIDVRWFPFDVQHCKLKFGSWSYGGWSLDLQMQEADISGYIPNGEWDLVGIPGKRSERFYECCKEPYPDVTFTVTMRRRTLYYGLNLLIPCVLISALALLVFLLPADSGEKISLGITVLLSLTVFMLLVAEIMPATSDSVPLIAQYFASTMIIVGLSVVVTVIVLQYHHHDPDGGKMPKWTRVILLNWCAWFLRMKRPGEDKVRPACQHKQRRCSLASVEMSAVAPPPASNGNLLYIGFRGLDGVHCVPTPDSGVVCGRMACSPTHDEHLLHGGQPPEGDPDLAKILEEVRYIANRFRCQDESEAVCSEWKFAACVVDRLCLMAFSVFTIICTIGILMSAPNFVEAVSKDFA
Assay [30] deals with Gamma-aminobutyric acid type B receptor subunit 1 (Homo sapiens, UniProt Q9UBS5).
The target in assay [31] is Voltage-dependent T-type calcium channel subunit alpha-1H (Homo sapiens, UniProt O95180).
Assay [32] concerns the target 5-hydroxytryptamine receptor 1B (Canis lupus familiaris, UniProt P79250).
Assay [33] deals with Voltage-dependent N-type calcium channel subunit alpha-1B (Rattus norvegicus, UniProt Q02294).
For assay [34], the target named is Gamma-aminobutyric acid type B receptor subunit 1 (UniProt Q9Z0U4).
For assay [35], the target named is Potassium voltage-gated channel subfamily A member 1 (Homo sapiens, UniProt Q09470).
Chain of Potassium voltage-gated channel subfamily A member 1 (Q09470 whole entry): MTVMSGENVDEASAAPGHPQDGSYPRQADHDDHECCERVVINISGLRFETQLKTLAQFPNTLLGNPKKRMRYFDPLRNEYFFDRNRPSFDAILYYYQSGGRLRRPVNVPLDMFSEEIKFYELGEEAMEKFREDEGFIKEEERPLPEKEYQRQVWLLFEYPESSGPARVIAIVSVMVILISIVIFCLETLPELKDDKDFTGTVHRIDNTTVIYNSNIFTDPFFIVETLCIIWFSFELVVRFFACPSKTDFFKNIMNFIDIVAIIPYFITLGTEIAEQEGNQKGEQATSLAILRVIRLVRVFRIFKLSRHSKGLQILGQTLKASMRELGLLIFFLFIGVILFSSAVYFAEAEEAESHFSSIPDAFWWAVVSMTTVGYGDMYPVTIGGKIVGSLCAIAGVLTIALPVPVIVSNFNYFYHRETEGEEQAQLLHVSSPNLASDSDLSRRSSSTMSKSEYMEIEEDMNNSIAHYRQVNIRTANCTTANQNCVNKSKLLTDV
The target in assay [36] is D(2) dopamine receptor (Homo sapiens, UniProt P14416).
Assay [37] has as its target Protein kinase C (Drosophila melanogaster, UniProt P13678).
The target in assay [38] is Putative choline uptake ABC transporter permease protein (Rhizobium meliloti (strain 1021), UniProt Q92V96).
Assay [39] has as its target 5-hydroxytryptamine receptor 1A/1B/1D/2C (Homo sapiens, UniProt P08908+P28221+P28222+P28335).

SMILES strings stand for the structures. Several values for one entry are separate records, joined by “and”; a condition that tells them apart may be missing. Identical values can stand only once.

Chain of Acetylcholine receptor subunit alpha (P25108 whole entry): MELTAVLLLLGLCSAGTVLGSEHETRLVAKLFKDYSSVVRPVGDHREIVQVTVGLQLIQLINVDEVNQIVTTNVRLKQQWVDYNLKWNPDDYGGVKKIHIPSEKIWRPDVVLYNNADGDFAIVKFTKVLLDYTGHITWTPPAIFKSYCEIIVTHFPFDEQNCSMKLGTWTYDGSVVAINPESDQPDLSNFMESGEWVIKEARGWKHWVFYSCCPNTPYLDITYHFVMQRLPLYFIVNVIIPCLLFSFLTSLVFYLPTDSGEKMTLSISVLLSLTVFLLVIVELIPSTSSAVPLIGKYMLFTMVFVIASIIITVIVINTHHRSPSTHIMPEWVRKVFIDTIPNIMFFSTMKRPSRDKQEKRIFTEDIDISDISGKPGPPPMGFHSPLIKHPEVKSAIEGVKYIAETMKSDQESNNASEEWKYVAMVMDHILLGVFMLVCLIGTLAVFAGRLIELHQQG
Chain of Sodium channel protein type 2 subunit alpha (Q99250 whole entry): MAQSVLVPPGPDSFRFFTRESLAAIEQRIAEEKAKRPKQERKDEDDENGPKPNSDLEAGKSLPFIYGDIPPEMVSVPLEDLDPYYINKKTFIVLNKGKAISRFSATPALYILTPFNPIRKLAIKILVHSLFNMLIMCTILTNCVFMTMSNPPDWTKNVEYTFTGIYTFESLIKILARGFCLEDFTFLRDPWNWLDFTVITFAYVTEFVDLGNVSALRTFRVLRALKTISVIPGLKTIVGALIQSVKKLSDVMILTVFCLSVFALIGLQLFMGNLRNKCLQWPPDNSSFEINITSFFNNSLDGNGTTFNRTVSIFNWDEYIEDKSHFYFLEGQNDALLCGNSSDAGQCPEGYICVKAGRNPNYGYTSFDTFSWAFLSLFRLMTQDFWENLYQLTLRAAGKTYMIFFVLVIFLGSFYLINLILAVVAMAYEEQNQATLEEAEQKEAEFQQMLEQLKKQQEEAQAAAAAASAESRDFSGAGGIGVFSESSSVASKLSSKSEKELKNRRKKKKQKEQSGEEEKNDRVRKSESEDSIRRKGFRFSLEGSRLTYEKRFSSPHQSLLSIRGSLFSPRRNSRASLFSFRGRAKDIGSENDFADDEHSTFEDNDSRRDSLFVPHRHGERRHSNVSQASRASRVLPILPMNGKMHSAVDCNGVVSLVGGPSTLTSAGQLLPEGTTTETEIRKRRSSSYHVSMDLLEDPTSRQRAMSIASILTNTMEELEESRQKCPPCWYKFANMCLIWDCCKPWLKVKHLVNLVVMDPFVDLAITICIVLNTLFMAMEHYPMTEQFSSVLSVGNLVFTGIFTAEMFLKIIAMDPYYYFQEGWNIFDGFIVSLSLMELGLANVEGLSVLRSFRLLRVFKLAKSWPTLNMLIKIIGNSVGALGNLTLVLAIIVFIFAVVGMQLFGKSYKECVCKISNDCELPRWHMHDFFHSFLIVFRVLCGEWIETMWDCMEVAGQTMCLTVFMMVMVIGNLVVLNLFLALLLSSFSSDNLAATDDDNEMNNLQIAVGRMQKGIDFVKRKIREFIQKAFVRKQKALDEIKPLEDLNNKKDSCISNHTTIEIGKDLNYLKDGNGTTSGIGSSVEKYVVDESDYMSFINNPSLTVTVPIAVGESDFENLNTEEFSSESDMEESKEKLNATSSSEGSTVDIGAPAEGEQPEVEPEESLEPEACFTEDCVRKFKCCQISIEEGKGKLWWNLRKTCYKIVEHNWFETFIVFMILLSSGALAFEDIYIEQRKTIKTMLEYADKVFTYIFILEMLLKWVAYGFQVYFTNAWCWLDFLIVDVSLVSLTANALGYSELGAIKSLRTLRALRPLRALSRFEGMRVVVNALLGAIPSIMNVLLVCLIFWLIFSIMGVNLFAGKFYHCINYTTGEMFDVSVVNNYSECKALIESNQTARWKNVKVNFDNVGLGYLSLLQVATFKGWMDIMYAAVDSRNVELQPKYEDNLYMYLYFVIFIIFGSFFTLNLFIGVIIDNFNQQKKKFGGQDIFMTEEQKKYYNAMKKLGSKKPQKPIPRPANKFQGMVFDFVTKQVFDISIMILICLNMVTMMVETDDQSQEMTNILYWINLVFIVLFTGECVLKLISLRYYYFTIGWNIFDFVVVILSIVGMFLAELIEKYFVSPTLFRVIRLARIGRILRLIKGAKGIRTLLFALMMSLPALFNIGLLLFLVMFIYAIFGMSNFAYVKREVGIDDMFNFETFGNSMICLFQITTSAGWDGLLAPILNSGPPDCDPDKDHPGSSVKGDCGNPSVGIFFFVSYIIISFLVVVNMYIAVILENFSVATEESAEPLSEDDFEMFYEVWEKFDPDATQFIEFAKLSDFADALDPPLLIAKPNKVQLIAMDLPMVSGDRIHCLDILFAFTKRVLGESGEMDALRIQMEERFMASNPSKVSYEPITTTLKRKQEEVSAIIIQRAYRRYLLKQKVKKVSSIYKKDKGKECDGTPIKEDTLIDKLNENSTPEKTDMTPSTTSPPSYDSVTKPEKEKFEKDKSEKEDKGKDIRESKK
Chain of Adenosine receptor A2a (P29274 whole entry): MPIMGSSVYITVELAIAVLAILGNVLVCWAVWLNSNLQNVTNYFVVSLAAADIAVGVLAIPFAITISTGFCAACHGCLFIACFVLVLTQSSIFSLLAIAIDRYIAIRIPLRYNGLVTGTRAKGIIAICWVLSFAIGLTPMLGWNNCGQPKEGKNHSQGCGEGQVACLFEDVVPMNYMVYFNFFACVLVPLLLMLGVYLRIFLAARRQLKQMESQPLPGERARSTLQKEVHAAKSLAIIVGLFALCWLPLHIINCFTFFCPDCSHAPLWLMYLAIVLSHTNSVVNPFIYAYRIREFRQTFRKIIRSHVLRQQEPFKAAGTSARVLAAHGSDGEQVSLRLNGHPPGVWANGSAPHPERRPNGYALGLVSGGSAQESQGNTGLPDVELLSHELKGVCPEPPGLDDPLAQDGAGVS
Chain of Beta-nerve growth factor (P01138 122-241 limits assumed): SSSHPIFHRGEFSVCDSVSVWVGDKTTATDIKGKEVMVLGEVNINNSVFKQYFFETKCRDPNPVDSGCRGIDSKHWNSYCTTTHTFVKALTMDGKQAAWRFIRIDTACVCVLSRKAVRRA

Turning to `c1cncc(OC[C@@H]2CCN2)c1`, the Ki in assay [1], in assay [2], in assay [3], in assay [4], in [5] and in [6] was greater than 10 µM each time. In addition, the Ki in assay [7], in [8], in [9], in assay [10], in assay [11] and in assay [12] was greater than 10 µM each time. Moreover, the Ki in assay [13], in [14], in assay [15], in assay [16], in [17] and in assay [18] was greater than 10 µM each time. The Ki is greater than 10 µM in assay [19]; greater than 10 µM in assay [20]; 40 pM in assay [21]; 0.384 µM and 0.314 µM in assay [22]; greater than 10 µM in [23]; greater than 10 µM in [24]. Also, the Ki in assay [25] was greater than 10 µM; in assay [26] it was greater than 10 µM; in [27], greater than 10 µM; in assay [28], greater than 10 µM; in assay [29] it was 1.27 µM and 0.148 µM; in [30], greater than 10 µM. The Ki in assay [31], in [32], in assay [33], in assay [34], in assay [35] and in assay [36] was greater than 10 µM each time. Also, the Ki in [37], in [38] and in [39] was greater than 10 µM throughout.

In turn, `CN1CCC[C@H]1c1cccnc1` [(R,S)-nicotine] yielded a Ki in assay [22] greater than 10 µM.

(Values after BindingDB's records for doi:10.1016/0028-3908(96)84644-2 (Abbott Laboratories, 1996).)
